Experimental data: ChEMBL document CHEMBL4507268 (2021)

Legend:
Conditions in all cases: Compound concentration 1.0 uM
[1] = target: Aurora kinase B (Homo sapiens) (UniProt Q96GD4)
[2] = target: Casein kinase I isoform gamma-1 (Homo sapiens) (UniProt Q9HCP0)
[3] = target: Epithelial discoidin domain-containing receptor 1 (Homo sapiens) (UniProt Q08345)
[4] = target: G protein-coupled receptor kinase 5 (Homo sapiens) (UniProt P34947)
[5] = target: T1, Serine/threonine-protein kinase haspin (Homo sapiens) (UniProt Q8TF76)
T1 sequence (whole entry): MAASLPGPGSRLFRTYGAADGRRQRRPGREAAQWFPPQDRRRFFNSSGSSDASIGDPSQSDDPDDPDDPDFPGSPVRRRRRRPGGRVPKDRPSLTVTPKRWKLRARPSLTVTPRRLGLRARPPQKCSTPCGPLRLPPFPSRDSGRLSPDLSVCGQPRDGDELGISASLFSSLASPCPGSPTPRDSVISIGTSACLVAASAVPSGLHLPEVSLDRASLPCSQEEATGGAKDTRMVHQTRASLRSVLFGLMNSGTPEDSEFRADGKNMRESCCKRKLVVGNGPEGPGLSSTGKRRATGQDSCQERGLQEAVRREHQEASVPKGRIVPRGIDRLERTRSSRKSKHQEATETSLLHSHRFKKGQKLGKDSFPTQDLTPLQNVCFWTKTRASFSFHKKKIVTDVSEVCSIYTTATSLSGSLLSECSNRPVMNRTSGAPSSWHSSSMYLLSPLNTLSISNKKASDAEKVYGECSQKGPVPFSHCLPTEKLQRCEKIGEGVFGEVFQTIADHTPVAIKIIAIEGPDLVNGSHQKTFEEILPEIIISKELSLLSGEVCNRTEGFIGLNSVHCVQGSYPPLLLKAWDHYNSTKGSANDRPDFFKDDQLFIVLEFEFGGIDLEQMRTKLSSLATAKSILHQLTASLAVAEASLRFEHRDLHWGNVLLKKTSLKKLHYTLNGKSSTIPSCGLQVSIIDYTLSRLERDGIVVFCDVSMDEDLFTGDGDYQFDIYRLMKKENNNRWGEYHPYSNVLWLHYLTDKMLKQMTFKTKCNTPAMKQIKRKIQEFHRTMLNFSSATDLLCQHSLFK

[6] = target: Serine/threonine-protein kinase 10 (Homo sapiens) (UniProt O94804)
[7] = target: Maternal embryonic leucine zipper kinase (Homo sapiens) (UniProt Q14680)
[8] = target: Misshapen-like kinase 1 (Homo sapiens) (UniProt Q8N4C8)
[9] = target: mTOR/FKBP12A/FKBP12B (Homo sapiens) (UniProt P62942+P68106+P42345)
[10] = target: Protein kinase C theta type (Homo sapiens) (UniProt Q04759)
[11] = target: Protein kinase C zeta type (Homo sapiens) (UniProt Q05513)
[12] = target: Serine/threonine-protein kinase PLK3 (Homo sapiens) (UniProt Q9H4B4)
[13] = target: T2, MAP kinase-activated protein kinase 5 (Homo sapiens) (UniProt Q8IW41)
T2 sequence (whole entry): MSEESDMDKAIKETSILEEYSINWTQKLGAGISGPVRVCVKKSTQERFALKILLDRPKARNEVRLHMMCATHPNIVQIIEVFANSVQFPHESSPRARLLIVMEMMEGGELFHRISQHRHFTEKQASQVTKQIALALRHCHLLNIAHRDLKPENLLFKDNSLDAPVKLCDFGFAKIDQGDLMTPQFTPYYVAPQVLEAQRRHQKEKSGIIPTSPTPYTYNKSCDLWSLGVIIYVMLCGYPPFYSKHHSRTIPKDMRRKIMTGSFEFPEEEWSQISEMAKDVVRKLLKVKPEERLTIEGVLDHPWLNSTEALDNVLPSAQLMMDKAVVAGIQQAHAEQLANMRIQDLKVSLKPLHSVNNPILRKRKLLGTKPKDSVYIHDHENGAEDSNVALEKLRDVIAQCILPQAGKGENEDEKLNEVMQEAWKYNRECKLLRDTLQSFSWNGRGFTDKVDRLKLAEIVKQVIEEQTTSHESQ

[14] = target: Proto-oncogene tyrosine-protein kinase ROS (Homo sapiens) (UniProt P08922)
[15] = target: Ribosomal protein S6 kinase alpha-2 (Homo sapiens) (UniProt Q15349)
[16] = target: T3, Serine/threonine-protein kinase TBK1 (Homo sapiens) (UniProt Q9UHD2)
T3 sequence (whole entry): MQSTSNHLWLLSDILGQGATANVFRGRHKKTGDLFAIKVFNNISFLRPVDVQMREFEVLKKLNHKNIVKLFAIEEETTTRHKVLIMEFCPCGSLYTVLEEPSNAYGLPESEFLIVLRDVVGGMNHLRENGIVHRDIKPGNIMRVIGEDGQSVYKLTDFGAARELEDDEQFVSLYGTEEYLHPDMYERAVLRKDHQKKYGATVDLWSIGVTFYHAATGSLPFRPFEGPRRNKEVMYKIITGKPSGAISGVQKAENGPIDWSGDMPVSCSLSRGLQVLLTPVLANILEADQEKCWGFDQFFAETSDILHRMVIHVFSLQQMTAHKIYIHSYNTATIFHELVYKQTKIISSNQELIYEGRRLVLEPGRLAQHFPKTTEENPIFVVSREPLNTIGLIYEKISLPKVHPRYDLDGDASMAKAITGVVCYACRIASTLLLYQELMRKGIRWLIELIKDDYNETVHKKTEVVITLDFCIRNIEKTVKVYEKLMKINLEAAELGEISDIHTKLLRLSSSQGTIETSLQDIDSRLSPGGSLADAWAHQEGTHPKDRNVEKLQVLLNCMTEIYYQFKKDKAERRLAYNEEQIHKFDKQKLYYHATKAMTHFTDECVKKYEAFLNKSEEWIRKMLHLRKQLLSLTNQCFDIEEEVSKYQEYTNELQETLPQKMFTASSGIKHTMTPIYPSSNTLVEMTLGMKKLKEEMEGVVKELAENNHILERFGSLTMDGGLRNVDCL

[17] = target: Tau-tubulin kinase 1 (Homo sapiens) (UniProt Q5TCY1)
[18] = target: Serine/threonine-protein kinase VRK2 (Homo sapiens) (UniProt Q86Y07)

Measured: % residual kinase activity

Chain of Serine/threonine-protein kinase PLK3 (Homo sapiens) (Q9H4B4 whole entry, looked up): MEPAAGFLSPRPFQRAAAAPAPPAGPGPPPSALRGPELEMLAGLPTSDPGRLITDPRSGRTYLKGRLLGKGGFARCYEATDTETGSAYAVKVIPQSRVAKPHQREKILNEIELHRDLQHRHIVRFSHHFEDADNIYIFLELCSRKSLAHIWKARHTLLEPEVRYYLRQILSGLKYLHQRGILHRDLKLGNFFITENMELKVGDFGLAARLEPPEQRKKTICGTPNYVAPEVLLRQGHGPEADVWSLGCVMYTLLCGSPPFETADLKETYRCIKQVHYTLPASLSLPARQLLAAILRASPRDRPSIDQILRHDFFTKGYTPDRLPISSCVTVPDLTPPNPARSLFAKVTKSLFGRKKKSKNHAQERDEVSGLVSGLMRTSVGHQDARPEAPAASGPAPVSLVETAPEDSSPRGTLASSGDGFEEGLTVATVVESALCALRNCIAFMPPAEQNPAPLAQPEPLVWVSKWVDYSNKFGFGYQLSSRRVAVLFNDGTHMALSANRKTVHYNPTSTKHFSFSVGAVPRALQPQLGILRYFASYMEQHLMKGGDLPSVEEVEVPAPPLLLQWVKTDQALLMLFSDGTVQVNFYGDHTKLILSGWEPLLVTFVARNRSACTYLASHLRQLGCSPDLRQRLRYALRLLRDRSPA
Chain of Tau-tubulin kinase 1 (Homo sapiens) (Q5TCY1 whole entry): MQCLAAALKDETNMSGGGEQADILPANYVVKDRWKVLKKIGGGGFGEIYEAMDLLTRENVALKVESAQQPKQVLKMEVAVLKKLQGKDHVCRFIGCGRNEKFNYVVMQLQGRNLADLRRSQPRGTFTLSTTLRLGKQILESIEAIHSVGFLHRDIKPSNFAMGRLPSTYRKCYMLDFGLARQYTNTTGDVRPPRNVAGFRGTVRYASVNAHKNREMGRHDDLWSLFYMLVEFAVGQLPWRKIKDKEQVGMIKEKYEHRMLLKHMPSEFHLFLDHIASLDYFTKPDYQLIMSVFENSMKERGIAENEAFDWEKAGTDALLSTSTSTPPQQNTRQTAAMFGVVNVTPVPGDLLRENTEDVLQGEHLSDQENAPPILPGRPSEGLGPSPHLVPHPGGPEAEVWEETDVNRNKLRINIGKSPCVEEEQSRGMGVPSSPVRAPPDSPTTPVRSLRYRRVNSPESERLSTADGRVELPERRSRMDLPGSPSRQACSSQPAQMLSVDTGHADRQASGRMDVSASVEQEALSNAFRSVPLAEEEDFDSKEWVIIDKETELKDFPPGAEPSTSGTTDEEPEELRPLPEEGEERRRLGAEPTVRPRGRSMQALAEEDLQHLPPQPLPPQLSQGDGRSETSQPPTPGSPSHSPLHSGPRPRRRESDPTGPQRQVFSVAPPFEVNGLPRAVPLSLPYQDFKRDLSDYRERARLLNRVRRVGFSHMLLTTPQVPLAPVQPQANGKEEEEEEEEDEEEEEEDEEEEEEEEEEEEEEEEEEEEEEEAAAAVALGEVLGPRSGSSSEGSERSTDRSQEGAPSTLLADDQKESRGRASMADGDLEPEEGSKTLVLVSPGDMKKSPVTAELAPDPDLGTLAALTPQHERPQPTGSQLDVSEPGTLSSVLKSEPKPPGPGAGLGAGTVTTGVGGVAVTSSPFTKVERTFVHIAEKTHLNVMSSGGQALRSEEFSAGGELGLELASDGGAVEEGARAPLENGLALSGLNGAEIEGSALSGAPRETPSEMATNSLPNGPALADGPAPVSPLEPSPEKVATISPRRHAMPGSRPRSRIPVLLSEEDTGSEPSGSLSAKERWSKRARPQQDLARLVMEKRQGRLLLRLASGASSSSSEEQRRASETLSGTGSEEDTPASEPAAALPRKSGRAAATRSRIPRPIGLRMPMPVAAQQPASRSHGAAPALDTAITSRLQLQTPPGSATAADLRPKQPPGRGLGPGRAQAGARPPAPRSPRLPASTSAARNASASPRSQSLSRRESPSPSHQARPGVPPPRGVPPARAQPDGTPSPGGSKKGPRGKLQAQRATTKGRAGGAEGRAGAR
Chain of G protein-coupled receptor kinase 5 (Homo sapiens) (P34947 whole entry, looked up): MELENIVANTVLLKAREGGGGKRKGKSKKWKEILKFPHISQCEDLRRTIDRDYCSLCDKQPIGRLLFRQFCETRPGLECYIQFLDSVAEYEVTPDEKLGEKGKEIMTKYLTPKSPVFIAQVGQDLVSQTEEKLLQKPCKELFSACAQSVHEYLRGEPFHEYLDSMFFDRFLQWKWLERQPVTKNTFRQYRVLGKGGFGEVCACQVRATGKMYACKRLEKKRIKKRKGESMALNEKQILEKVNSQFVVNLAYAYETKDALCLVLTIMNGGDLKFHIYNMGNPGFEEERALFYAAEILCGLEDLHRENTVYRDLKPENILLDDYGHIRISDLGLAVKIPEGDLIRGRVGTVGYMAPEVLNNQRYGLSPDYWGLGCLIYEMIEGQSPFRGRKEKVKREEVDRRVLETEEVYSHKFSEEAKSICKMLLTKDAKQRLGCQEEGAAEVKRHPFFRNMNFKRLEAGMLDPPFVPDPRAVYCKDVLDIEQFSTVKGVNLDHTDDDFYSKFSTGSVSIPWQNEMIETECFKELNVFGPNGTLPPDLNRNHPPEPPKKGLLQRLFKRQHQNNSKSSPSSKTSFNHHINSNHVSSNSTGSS
Chain of Epithelial discoidin domain-containing receptor 1 (Homo sapiens) (Q08345 whole entry, the tested form may be a part): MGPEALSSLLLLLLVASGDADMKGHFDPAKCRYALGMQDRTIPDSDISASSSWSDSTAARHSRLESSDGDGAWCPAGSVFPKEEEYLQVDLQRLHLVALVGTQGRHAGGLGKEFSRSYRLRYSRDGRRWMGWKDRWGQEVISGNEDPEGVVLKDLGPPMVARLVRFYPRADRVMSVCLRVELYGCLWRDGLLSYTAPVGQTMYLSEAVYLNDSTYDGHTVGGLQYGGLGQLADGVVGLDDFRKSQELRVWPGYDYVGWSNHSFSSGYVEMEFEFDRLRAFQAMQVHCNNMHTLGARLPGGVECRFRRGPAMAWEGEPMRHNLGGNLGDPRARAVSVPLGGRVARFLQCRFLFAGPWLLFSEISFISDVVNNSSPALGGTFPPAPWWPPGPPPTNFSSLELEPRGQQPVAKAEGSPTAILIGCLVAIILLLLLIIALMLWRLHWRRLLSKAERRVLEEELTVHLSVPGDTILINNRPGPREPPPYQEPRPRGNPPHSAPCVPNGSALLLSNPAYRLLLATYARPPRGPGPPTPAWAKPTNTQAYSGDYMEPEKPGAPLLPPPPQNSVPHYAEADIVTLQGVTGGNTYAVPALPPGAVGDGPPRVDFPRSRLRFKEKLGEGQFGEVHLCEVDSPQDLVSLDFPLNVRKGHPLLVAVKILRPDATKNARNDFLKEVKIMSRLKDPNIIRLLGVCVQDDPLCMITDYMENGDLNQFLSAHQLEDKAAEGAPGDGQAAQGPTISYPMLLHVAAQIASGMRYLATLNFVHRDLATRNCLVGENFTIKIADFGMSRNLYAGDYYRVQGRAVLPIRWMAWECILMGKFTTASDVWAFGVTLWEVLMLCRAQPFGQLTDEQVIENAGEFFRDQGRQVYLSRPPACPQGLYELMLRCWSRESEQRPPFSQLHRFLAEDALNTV
Chain of Serine/threonine-protein kinase VRK2 (Homo sapiens) (Q86Y07 whole entry): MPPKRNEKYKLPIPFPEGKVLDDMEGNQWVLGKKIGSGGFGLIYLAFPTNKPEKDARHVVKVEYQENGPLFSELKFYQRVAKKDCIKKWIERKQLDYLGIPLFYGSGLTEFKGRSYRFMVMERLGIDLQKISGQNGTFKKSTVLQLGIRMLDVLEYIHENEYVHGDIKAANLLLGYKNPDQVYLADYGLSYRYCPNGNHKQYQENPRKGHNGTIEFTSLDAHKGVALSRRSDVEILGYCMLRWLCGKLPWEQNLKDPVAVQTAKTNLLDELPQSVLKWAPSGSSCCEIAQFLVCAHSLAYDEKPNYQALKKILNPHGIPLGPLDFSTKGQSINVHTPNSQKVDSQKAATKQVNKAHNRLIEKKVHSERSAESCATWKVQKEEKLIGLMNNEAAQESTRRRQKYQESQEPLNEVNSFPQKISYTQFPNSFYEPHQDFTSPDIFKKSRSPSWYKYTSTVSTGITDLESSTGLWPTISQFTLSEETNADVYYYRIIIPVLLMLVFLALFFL
Chain of Ribosomal protein S6 kinase alpha-2 (Homo sapiens) (Q15349 whole entry): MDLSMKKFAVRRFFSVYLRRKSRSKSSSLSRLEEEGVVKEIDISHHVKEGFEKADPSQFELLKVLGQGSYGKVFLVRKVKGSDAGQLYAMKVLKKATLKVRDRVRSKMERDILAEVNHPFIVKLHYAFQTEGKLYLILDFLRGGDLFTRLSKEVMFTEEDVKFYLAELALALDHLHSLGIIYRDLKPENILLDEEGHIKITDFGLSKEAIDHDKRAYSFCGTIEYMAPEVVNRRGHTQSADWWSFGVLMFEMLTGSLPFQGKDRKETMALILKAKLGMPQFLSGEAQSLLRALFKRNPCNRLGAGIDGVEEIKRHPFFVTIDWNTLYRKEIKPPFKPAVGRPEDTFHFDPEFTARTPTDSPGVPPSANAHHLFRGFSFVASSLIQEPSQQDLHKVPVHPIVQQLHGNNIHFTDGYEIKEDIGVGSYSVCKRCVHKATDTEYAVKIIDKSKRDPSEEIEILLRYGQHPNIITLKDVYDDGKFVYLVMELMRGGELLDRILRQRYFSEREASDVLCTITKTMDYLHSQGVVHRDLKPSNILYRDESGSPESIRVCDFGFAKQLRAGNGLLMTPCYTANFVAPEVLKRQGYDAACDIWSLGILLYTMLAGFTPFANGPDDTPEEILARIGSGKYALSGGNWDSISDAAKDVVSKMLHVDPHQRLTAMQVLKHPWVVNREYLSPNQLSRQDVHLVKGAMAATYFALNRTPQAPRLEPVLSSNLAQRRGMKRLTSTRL
Chain of Aurora kinase B (Homo sapiens) (Q96GD4 whole entry, canonical isoform): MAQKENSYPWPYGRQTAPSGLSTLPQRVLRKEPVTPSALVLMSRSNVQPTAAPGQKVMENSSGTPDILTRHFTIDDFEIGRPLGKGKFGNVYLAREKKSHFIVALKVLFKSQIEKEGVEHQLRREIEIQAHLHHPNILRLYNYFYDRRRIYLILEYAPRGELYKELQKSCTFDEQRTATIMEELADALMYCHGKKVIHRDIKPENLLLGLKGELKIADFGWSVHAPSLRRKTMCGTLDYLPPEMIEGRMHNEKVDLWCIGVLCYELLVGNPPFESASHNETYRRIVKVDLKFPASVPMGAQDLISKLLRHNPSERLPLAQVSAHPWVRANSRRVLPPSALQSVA

CN1CCN(c2cnc3c(C4CCN(C(=O)c5ccc(OC(F)(F)F)cc5N)CC4)ncnc3c2)CC1 [BAY-885]
inactive: [1] 94% | [2] 105% | [3] 100% | [4] 85% | [5] 105% | [6] 114% | [7] 105% | [8] 98% | [9] 101% | [10] 115% | [11] 114% | [12] 107% | [13] 109% | [14] 111% | [15] 98% | [16] 118% | [17] 95% | [18] 106%
